{
  "source": "patent US8552018B2",
  "about": "“Substituted tricyclic compounds as protein kinase inhibitors” (Arizona Board of Regents on behalf of the University of …, priority 2003, dated 2013)",
  "key": {"c-Kit": {"target": "c-Kit (Homo sapiens, UniProt P10721)", "sequence (P10721 26-976)": "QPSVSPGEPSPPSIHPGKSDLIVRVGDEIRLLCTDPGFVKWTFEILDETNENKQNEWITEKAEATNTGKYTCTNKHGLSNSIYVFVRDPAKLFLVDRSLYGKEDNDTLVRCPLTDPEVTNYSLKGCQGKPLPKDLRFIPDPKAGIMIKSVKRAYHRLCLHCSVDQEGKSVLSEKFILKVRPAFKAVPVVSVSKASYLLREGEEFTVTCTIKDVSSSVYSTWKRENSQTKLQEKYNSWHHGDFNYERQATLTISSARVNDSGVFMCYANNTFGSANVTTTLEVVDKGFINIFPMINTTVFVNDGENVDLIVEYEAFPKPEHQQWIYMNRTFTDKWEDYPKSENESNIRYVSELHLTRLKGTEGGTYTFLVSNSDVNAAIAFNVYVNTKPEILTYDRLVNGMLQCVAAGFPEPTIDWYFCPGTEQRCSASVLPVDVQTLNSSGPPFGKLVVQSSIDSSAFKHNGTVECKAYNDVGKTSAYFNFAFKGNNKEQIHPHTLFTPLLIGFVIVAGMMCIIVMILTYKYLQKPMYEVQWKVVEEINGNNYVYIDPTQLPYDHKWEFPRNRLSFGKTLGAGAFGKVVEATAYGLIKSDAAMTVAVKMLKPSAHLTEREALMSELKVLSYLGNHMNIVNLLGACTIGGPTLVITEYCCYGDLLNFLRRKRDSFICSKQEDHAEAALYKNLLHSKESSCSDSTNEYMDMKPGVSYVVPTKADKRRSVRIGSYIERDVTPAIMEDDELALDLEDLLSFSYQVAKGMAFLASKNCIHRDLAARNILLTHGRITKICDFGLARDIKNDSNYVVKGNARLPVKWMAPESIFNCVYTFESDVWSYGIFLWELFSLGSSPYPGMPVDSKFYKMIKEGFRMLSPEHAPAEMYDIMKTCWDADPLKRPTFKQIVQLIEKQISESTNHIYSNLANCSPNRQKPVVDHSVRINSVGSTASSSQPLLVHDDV", "experiment": "Autophosphorylation assay with γ-32P-ATP", "assay_type": "biochemical", "conditions": "FIG. 28A", "protocol": "Enzymes were incubated with the appropriate concentration of inhibitor and radiolabeled γ-^32P-ATP. After 30 minutes, the reaction mixtures were electrophoresed on an acrylamide gel and autophosphorylation, quantitated by the amount of radioactivity incorporated into the enzyme, was assayed."}, "[1]": {"system": "pancreatic cancer cell lines MIAPaCa-2 and PANC-1", "experiment": "Cancer cell cytotoxicity assay, range over both pancreatic lines", "assay_type": "cell-based", "conditions": "potency order", "protocol": "(§1) To validate the hypothesis that the designed c-kit/PDGFR tyrosine kinase inhibitors mediate GIST882 cell killing and PDGFR-mediated cell killing of pancreatic cancer cell lines (CFPAC-1, PANC-1 and MIA PaCa-2), an in vitro cytotoxicity assay was performed. The GIST882 cell line used in this study has a c-kit gain-of-function mutation (K642E). […] First the cells were cultured. GIST882 cells were provided by Dr. Jonathan A. Fletcher (Dana-Farber Cancer Institute, Boston, Mass.). PANC-1 and MIAPaCa-2 cells were provided by Dr. Daniel Von Hoff (Arizona Cancer Center, Tucson, Ariz.). […] All the cell lines were incubated in a humidified incubator at 37° C. with 5% CO2 atmosphere.\nAfter incubation for 4 days at 37° C. in a humidified incubator, the cells were fixed with 10% Trichloroacetic acid solution (Catalog No. 490-10, Sigma). Subsequently, they were labeled with 0.04% Sulforhodamine B (S9012, Sigma) in 1% acetic acid. […] The absorbance of each well was read on a plate reader (Wallac Vector^2, PerkinElmer) at the wavelength of 570 nm. Data were expressed as the percentage of survival of control calculated from the absorbance corrected for background absorbance. The surviving percent of cells was determined by dividing the mean absorbance values of the […] by the mean absorbance values of the control and multiplying by 100."}, "GIST882 cell line [2]": {"system": "GIST882 cell line", "experiment": "GIST882 cell growth assay (Cell-Titer-Glo)", "assay_type": "cell-based", "protocol": "(§2) Briefly, cells are seeded into 96-well, tissue-culture treated, opaque white plates (Thermo Electron, Vantaa, Finland), at between 5000 and 7500 cells per well, depending on the speed of cell proliferation, in 100 μl of appropriate growth medium (determined by the ATCC). Cells are then exposed to the appropriate concentration of drug or an equal amount of DMSO (drug diluent) and allowed to grow in its presence for 96 hours. Following this, 100 μl of Cell-Titer-Glo reagent (Promega, Inc., Madison, Wis.) is added to each well. Plates are then shaken for 2 minutes at room temperature to allow for cell lysis and incubated for 10 minutes to stabilize the luminescent signal. Similar to the Kinase-Glo assay reagent, this reagent contains both luciferase enzyme and its substrate luciferin. Luciferase, activated by ATP in the cell lysate, catalyzes the conversion of luciferin to oxyluciferin, a reaction which produces light. The amount of light produced is proportionate to the amount of ATP in the cell lysate, which is itself proportional to cell number and gives an index of cellular proliferation.\nas §2, with “Various compounds of the invention, including (IV-1-3) (also referred to as HPK16), (III-1-3) (also referred to as HPK56), (III-1-4) (also referred to as HPK57), (III-1-5) (also referred to as HPK59), and (II-2-7) (also referred to as HPK61) were tested for activity against GIST tumor cells using the GIST882 cell line. Briefly,” for “Briefly,”"}, "PANC-1 cells": {"system": "PANC-1 cells", "experiment": "Cancer cell cytotoxicity assay (sulforhodamine B)", "assay_type": "cell-based", "conditions": "Homo sapiens, 96 h; PANC-1, 4 days; read-out: IC50 PDGFR PANC-1", "protocol": "To validate the hypothesis that the designed c-kit/PDGFR tyrosine kinase inhibitors mediate GIST882 cell killing and PDGFR-mediated cell killing of pancreatic cancer cell lines (CFPAC-1, PANC-1 and MIA PaCa-2), an in vitro cytotoxicity assay was performed. The GIST882 cell line used in this study has a c-kit gain-of-function mutation (K642E). The assay utilized the Cell Titer 965 Non-Radioactive Cell Proliferation Assay (Promega Corp., Madison, Wis.). First the cells were cultured. GIST882 cells were provided by Dr. Jonathan A. Fletcher (Dana-Farber Cancer Institute, Boston, Mass.). PANC-1 and MIAPaCa-2 cells were provided by Dr. Daniel Von Hoff (Arizona Cancer Center, Tucson, Ariz.). GIST882 cells were cultured in RPMI 1640 medium (Cat #21870-076, Invitrogen Corporation) supplemented with 300 mg/L L-glutamine, 100 unit/ml penicillin, 100 μg/ml streptomycin and 15% fetal bovine serum. PANC-1 and MIAPaCa-2 cells were maintained in RPMI 1640 medium (cat #10-040, Mediatech, Inc.) supplemented with 100 unit/ml penicillin, 100 μg/ml streptomycin and 10% fetal bovine serum. All the cell lines were incubated in a humidified incubator at 37° C. with 5% CO2 atmosphere.\nCells were plated at a density of 2000 to 10000 cells per well, depending on their growth rate, in 0.1 mL medium on day 0 in 96-well Falcon microtiter plates (#3072, Becton-Dickinson Labware, Lincoln Park, N.J.). On day 1, 10 μL of serial dilutions of the individual compounds were added to the plates in replicates of 4. After incubation for 4 days at 37° C. in a humidified incubator, the cells were fixed with 10% Trichloroacetic acid solution (Catalog No. 490-10, Sigma). Subsequently, they were labeled with 0.04% Sulforhodamine B (S9012, Sigma) in 1% acetic acid. After multiple washes to remove excess dye, 100 μl of 50 mM Tris solution was added to each well in order to dissolve the dye. The absorbance of each well was read on a plate reader (Wallac Vector^2, PerkinElmer) at the wavelength of 570 nm. Data were expressed as the percentage of survival of control calculated from the absorbance corrected for background absorbance. The surviving percent of cells was determined by dividing the mean absorbance values of the […] by the mean absorbance values of the control and multiplying by 100."}, "GIST882 cell line [3]": {"system": "GIST882 cell line", "experiment": "Cancer cell cytotoxicity assay (sulforhodamine B)", "assay_type": "cell-based", "protocol": "as §1\nAfter incubation for 4 days at 37° C. in a humidified incubator, the cells were fixed with 10% Trichloroacetic acid solution (Catalog No. 490-10, Sigma). Subsequently, they were labeled with 0.04% Sulforhodamine B (S9012, Sigma) in 1% acetic acid. After multiple washes to remove excess dye, 100 μl of 50 mM Tris solution was added to each well in order to dissolve the dye. The absorbance of each well was read on a plate reader (Wallac Vector^2, PerkinElmer) at the wavelength of 570 nm. Data were expressed as the percentage of survival of control calculated from the absorbance corrected for background absorbance. The surviving percent of cells was determined by dividing the mean absorbance values of the […] by the mean absorbance values of the control and multiplying by 100."}},
  "data": [
    {"smiles": "COc1cc2[nH]c3ncnc(N4CCN(C(=S)NCc5ccc6c(c5)OCO6)CC4)c3c2cc1OC", "note": "[HPK61, 4-(6,7-Dimethoxy-9H-1,3,9-triaza-fluoren-4-yl)-piperazine-1-carbothioic acid (benzo[1,3]dioxol-5-ylmethyl)-amide]", "values": [
      {"measurement": "inhibition of c-Kit autophosphorylation (in words)", "setting": "c-Kit", "value": "dose-dependent"},
      {"measurement": "IC50", "setting": "[1]", "value": "15.5 to 16", "unit": "µM"},
      {"measurement": "inhibitory activity in GIST882 cell line (in words)", "setting": "GIST882 cell line [2]; FIG. 29, 96 hours", "value": "highest inhibitory activity"},
      {"measurement": "IC50", "setting": "GIST882 cell line [2]; Homo sapiens, GIST882, 96 hours", "value": 0.45, "unit": "µM"},
      {"measurement": "IC50", "setting": "PANC-1 cells", "value": 16, "unit": "µM"},
      {"measurement": "cells alive at day 4", "setting": "GIST882 cell line [3]; GIST882, day 4", "value": 5, "unit": "%"},
      {"measurement": "IC50", "setting": "GIST882 cell line [3]; Homo sapiens, 96 h, GIST882, 4 days, read-out: IC50 c-kit GIST882", "value": 0.45, "unit": "µM"}
    ]}
  ]
}
